Test results published in US5935945A, “Methods of treating or preventing cardiac arrhythmia” (Merck & Co., Inc., priority 1997, dated 1999).
Read-outs that look alike come from different tables or passages of the source.

How the values were obtained:
[1] = molecular target: T1, IKs (slowly activating delayed rectifier K^+ current) (Cavia porcellus, UniProt O70344); test: Voltage-clamp measurement of IKs in guinea pig ventricular myocytes; type: cell-based; conditions: read-out: % Block (Guinea Pig Ventricle) IKs
T1 construct: Guinea pig ventricular myocytes were isolated; from tissue; host or cells: isolated guinea pig ventricular myocytes
Procedure: Guinea pig ventricular myocytes were isolated using a modification of the procedure described by Mitra et al., Am. J. Physiol. 249:H1056-60 (1985). Excised hearts were perfused through the aorta (retrograde fashion) at a rate of 10 ml/min with oxygenated, warmed (37° C.) solutions described below. The heart was initially perfused for 7 minutes with a Tyrode's solution containing, (in mM): 132 NaCl, 4 KCl, 1.2 MgCl2, 10 HEPES, 5 glucose, pH=7.2. The heart was then perfused with the same nominally Ca^2+ -free solution containing 150 units/ml Type II collagenase (Worthington) and 0.5 units/ml Type XIV protease (Sigma) for 8 minutes. This perfusate was followed by a Tyrode's solution containing 0.2 mM CaCl2 (without enzymes) for 5 minutes. The digested ventricles were cut into small pieces and gently shaken until cells were visibly dispersed. The cells were stored at room temperature until use, within 8 hours after isolation.
The suction microelectrode technique described by Giles, W. R. and Shibata, E. F., "Voltage clamp of bull-frog cardiac pacemaker cells: a quantitative analysis of potassium currents", J. Physiol. 368:265-292 (1985) was used to voltage clamp the cells. Microelectrodes were made by using a two stage puller from square bore (1.0 mm o.d.) borosilicate capillary tubing. Pipettes were filled with 0.5 M K gluconate, 25 mM KCl and 5 mM K2 ATP. The electrodes had resistances of 3 to 7 M.OMEGA. when filled with this solution. After establishing whole-cell recording mode, negative pressure was maintained on the pipette using a 1 ml gas-tight syringe attached via air tight tubing to the suction port of the microelectrode holder. This minimized dialysis of the cell with the pipette solution.
To record K^+ currents, the cells were bathed in a Ca^2+ -free Tyrode's solution containing […]. […] To record Ca^2+ currents, the cells were bathed in Tyrode's solution containing 1.8 mM Ca^2+ without nisoldipine. The cell chamber was superfused with solutions at a rate of 1-2 ml/minute, while maintaining the temperature at 35±1° C. A List EPC-7 clamp amplifier was used to voltage clamp the isolated cells. […] (Sanguinetti M. C. and Jurkiewicz, N. K., "Two components of cardiac delayed rectifier K^+ current: Differential sensitivity to block by Class III antiarrhythmic agents", J. Gen Physiol 1990; 96:194-214.) Data was analyzed as % block from control membrane currents.
Nisoldipine was prepared as a 4 mM stock solution in polyethylene glycol 200. […] At the final concentrations used neither polyethylene glycol 200 nor dimethyl sulfoxide had any effect on any of the measured membrane currents.
Selectivity for block of cardiac K^+ channels, IK1, IKr, and IKs was determined as previously described in guinea pig ventricular myocytes (U.S. Pat. No. 5,428,031).

T1 sequence (O70344 whole entry): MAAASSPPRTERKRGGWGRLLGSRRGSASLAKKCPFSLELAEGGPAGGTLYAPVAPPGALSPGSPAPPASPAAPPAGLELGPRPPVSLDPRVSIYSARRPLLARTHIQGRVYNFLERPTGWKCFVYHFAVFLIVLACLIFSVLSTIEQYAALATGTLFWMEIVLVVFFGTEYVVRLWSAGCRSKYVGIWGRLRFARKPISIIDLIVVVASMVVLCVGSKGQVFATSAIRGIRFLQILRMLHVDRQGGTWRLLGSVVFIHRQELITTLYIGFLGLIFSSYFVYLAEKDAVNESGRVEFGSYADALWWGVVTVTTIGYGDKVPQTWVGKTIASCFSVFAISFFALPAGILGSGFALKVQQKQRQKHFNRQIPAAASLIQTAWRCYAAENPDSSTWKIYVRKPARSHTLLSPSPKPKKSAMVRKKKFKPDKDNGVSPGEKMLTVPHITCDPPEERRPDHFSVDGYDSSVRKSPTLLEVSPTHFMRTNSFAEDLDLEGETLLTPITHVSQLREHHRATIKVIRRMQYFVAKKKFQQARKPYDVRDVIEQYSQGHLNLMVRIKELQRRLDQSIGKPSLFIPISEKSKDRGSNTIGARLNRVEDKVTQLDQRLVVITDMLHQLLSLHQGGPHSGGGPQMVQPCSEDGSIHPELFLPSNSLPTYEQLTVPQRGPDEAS
T1 sequence (Q60409 whole entry partner): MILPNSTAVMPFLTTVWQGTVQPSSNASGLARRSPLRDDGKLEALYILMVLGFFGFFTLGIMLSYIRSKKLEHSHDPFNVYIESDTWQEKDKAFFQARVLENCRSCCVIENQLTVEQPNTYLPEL
Procedure for atrial flutter: In this model, atrial flutter was induced following a Y-shaped surgical lesion comprised of an intercaval incision and a connecting incision across the right atrium. […] Bipolar electrodes also were sutured to the left ventricle for measurement of ventricular excitation threshold (VET) and ventricular relative (VRRP at 2× VET) and effective refractory periods (VERP at 10×VET). The following cardiac electrophysiologic parameters also were measured before test agent administration and at the termination of the study: AH interval, an index of AV nodal conduction; HV interval, an index of His-ventricular conduction time; P-A interval, an index of intra-atrial conduction; and H-EG interval, an index of ventricular conduction; and paced ECG QT interval. AV nodal functional refractory period (AVNFRP) and SA conduction time (SACT) were determined by the introduction of atrial extrastimuli during sinus rhythm, and the monitoring of ventricular response. Electrocardiographic intervals were determined during sinus rhythm; the rate-corrected ECG QTc interval was calculated as: QTc=QT (msec)/√R-R (sec).
Sustained atrial flutter was initiated in three dogs by electrical burst pacing (6-20 Hz) of the atria; atrial rates ranged from 440-530 cycles/min.

inhibition at 10 µM ([1]; @ 10 μM) [%] | SMILES | inhibition at 3 µM [1] [%] | atrial effective refractory period, post-treatment (atrial flutter; at doses effective in terminating atrial arrhythmia, increase from 138±5 msec pretreatment) [ms] | effect on atrioventricular nodal or ventricular function (atrial flutter; dog, in vivo) | time to termination of atrial arrhythmia after test agent administration (atrial flutter; i.v. bolus 3 mg/kg (two dogs) or 10 mg/kg (third dog)) [s] | atrial rate during atrial flutter (atrial flutter; i.v. bolus 3 mg/kg (two dogs) or 10 mg/kg (third dog), initial rates 440-530 cycles/min) | termination of atrial arrhythmia (atrial flutter; i.v. bolus 3 mg/kg, in two of three dogs) | termination of atrial arrhythmia (atrial flutter; i.v. bolus 10 mg/kg, in the third of three dogs)
4 | COc1ccc(-n2nc(Sc3ccc(Cl)cc3)c(C)c(C#N)c2=O)cc1 [Compound A, 6-(4-Chlorophenylthio)-2-(4-methoxyphenyl)-5-methyl-3-oxo-2,3-dihydropyridazine-4-carbonitrile] |  |  |  |  |  |  | 
 | COc1ccc(-n2nc(Sc3ccc(C)cc3)c(C)c(C#N)c2=O)cc1 [Compound B] | 13.6 |  |  |  |  |  | 
 | Cc1cc(C)c(CP(=O)(c2ccccc2)c2ccccc2)c(-c2ccc(F)c(C)c2)c1 [Compound C, 2-(Diphenylphosphinylmethyl)-4'-fluoro-3,5,3'-trimethyl-biphenyl] | 12.2 | 153 ± 8 | no indication of effect on atrioventricular nodal or ventricular function | 10 to 120 | slowed atrial rate | terminated the atrial arrhythmia | terminated the atrial arrhythmia
